# Experimental data from US20100325754A1, “Compositions and methods for modulating oxidative burst in plant transformation” (Syngenta Participations AG, priority 2009, published 2010).
# Key:
# [1] = test system: MicroTom tomato cotyledon explants; test: Frequency of independent stable transgenic events and escapes in Agrobacterium-mediated MicroTom transformation (GUS staining)
# Description: Sterilize MicroTom tomato seeds: (2.1 grams (g) of MicroTom tomato seeds, which equals approximately 900 seeds; supplied by Ball Horticultural Company, Chicago, Ill., USA. • add approximately 900 seeds to a sterile 250 milliliter (ml) flask • soak for 10 minutes (min) in the sterile 250 ml flask with ˜100 ml sterile double deionized (dd) water and then pour off the water. • add 100 ml of 70% ethanol to immerse the seeds for 1 min while stirring vigorously, pour off the ethanol, rinse the seeds 2 times with sterile dd water. • soak the seeds in 100 ml of 25% Chlorine bleach solution (chlorine bleach available under the registered trademark CLOROX®) with 3 drops of TWEEN™ 20 detergent for 10 min while stirring frequently, rinse the seeds three times with sterile dd water. • the seeds are germinated in MAGENTA™ box (available from bio-WORLD, Dublin, Ohio, United States of America) or culture box containing TGM medium (approximately 70 seeds/container), and the MAGENTA™ boxes are placed in a plastic box that is wiped down with 70% ethanol. The box cultures are placed in a dark incubator at 27° C. under the dark for 6 days (d). Seeds are distributed evenly and closely in the MAGENTA™ box, and pressed down on the media surface when placing the seeds on the germination medium.
# Construct Information: The construct used in transformation contains a CaMV 35S promoter driving GUS (with GUS intron) and Nos promoter driving NPTII in Bin 19 binary vector (Frisch et al., 1995, Plant Molecular Biology 27:405-409). Agrobacterium tumefaciens strain EHA101 is used for transformation.
# 150 microliters (μl) of Vector 1 glycerol stock from −80° C. are placed on a fresh Luria Broth (LB)/rifampicin 50 microgram (μg)/ml/kanamycin 50 μg/ml plate on Friday of the week before transformation experiment, grown at about 28° C. for 3-4 d and stored in the refrigerator (4° C.) for the rest of the week. One day before inoculation, between 1:00 to 2:00 pm, a loopful of the bacterium cells from the freshly streaked plate is inoculated into 2 ml of liquid LB/rifampicin 50 μg/ml/kanamycin 50 μg/ml in a 17×100 Falcon tube, and grown at 28 C.° with 230 revolutions per minute (rpm) shaking. The next morning between 8:00 to 9:00 am, 0.2 ml of the overnight bacterium culture is inoculated into 2 ml of plain LB+0.2 millimeter (mM) acetosyringone in a 17×100 mm Falcon tube, and grown at about 28° C. with 230 rpm for 4 h.
# Day 7 at about 2:00 pm. • 1) Cotyledon explants are isolated from seedlings 6 d after sowing seeds on TGM medium. • 2) About 25 cotyledon explants are prepared at a time by bathing them in a sterile petri dish plate containing 6 ml of Fillatti's suspension medium (FSM) liquid medium to prevent desiccation and trimming them at both ends using a #15 feather blade. Note: it is desirable to use the cotyledons that make a fairly tight “V” shape (two cotyledons that are at closed shape are acceptable to be used). • 3) Immediately after the trimming, the 25 cotyledon explants are gently placed on “feeder plates”—TCM medium. The “feeder plates” are made by overlaying 2 ml of tobacco suspension cells and a sterile WHATMAN™ filter (No. 1, Cat No. 1001090, VWR; Whatman Inc., Florham Park, N.J., United States of America) on the plates containing TCM medium. • 4) Cotyledon explants are gently poked with a sharp forceps and usually six pokes are made per explant. It is desirable that the sharp forceps gently touch the surface of explants and then make a slight movement on the touched surface in order to have a larger and shallower wounding surface that results in good transient expression. • 5) Right after poking, the cotyledons are inoculated with Agrobacterium by adding 3 ml of the Agrobacterium solution (OD600=0.1) suspended in FSM liquid medium to the top of cotyledons. The plates are incubated for 10 min at room temperature and the Agrobacterium solution is aspirated with a sterile pipette.
# [2] = test system: MicroTom tomato cotyledons; test: Tissue extreme browning of MicroTom tomato cotyledon explants after Agrobacterium inoculation; type: cell-based, Solanum lycopersicum (tomato); details: for Extreme Browning Rate: 3 days after selection
# From the text: For tissue browning and transient expression data collection, 3 d after selection cotyledon explant data are collected for tissue browning under a dissecting microscope, and then for transient expression by GUS staining.
# rice calli (Nipponbare) = test: Rice stable callus transformation efficiency; type: cell-based; details: co-cultivation and recovery media
# Description: • 1. […] Check for any off-type seeds and discard these. • 2. Surface sterilize seeds in a 50 ml sterile tube with 70% ethanol for 1 to 2 min with shaking (ethanol treatment step is optional). • 3. Remove ethanol. • 4. Add 50% (v/v) CLOROX® bleach (2.4% Na hypochlorite) or 40% (v/v) ULTRA CLOROX® (˜3.2% Na hypochlorite) and one drop of TWEEN™-20 detergent, shake for 30-40 min on a shaker at 100-200 rpm. • 5. Remove CLOROX® solution and rinse with sterile water at least three times, until all sign of TWEEN™-20 detergent (soap bubbles) is gone. • 6. Seeds are ready to plate on sterile medium. • 7. Check for bacterial and fungal contaminations at 3 and 5 days later, respectively.
# • 1. Soak sterilized seeds in sterile water for 1-2 d until fully imbibed (optional step) • 2. Plate pre-soaked or sterilized mature seeds onto rice callus induction medium (MS-CIM) at 12 seeds per plate. Culture in dark at 28° C. for 6 d prior to inoculation or for 4 weeks (wks) for production of embryogenic cultures. • 3. At 4 wks, selectively excise high quality target material and transfer to MS-CIM at 25 pieces per plate. Culture in dark for 8 d at 28° C. before inoculation.
# • 1. If possible, choose bacteria from the area of the plate where there are many individual single colonies of bacteria growing for inoculation. Transfer ˜7 inoculation loops full of Agrobacterium culture to a 50 ml sterile plastic tube containing 20 ml liquid MS media with acetosyringone (As) added to 200 μM (add 1 μl As stock at 40 mg/ml per ml of suspension). Vortex to completely dissolve bacteria in liquid and bring volume to 50 ml. • 2. Measure the Agrobacterium suspension OD at 660 nm. Dilute the culture to an OD660 of 0.2-0.3 (higher concentrations can offer higher transformation frequencies but can cause damage/browning in some cultivars). Induce the bacteria with acetosyringone for at least 30 min. • 3. Inoculate cultured rice seeds or rice embryogenic culture responses by immersing target material in the bacterial suspension for 30 min. • 4. Try to make sure that all target pieces are completely immersed in the bacterial solution and shake regularly to ensure that this continues to be the case. • 5.
# Transfer the inoculated seeds/cultures to multiple shoot-acetosyringone (MS-As) co-cultivation medium with sterile 85 mm filter paper. Each filter paper is wetted with 1 ml of MSInoc (see recipe below) liquid media with the concentrations of MT (in μM) listed below. Fifty (50) pieces per plate; incubate at 22° C. for 3 d. • A: Filter Paper • B: Filter Paper 2MT • C: Filter Paper 10MT • D: Filter Paper 100MT • E: Filter Paper 300MT • F: Filter Paper 1000MT
# • 1. After ˜36 hours of co-cultivation, transfer the co-cultivated seeds/responses to Agrobacterium inhibition medium MS-400Tim (see recipe below) (1 plate→1 plate). Culture in the dark at 28° C. for ˜7 days. • 2. Score the scorable marker control plate for gene delivery efficiency at 4 to 5 days after co-cultivation • A: Recovery Media • B: Recovery Media+2MT • C: Recovery Media+10MT • D: Recovery Media+100MT • E: Recovery Media+300MT • F: Recovery Media+1000MT
# • 1. Transfer calli to selection medium (17.5 g/l mannose/5 g/l sucrose). Culture in dark at ˜28° C. for 2 to 3 weeks, observing periodically for colony proliferation and contamination. • 2. Select mannose resistant embryogenic micro-colonies under microscope when proliferating colonies are big enough to grow independently, but not so big that they have begun to grow together. […]
# [3] = test system: soybean immature seed explants; test: Soybean transformation frequency (TAQMAN positive plants); type: cell-based, Soybean (Glycine max, Jack); details: transgenic plants after rooting
# [4] = resveratrol 50 μM, 6 weeks after selection
# [5] = resveratrol 100 μM, 6 weeks after selection
# [6] = resveratrol 200 μM, 6 weeks after selection
# [7] = epicatechin 50 mg/l, 6 weeks after selection
# [8] = epicatechin 100 mg/l, 6 weeks after selection
# [9] = epicatechin 1000 mg/l, 6 weeks after selection
# [10] = N-t-butyl hydroxylamine 10 μM, 4 weeks after selection
# [11] = N-t-butyl hydroxylamine 50 μM, 4 weeks after selection
# [12] = N-t-butyl hydroxylamine 100 μM, 4 weeks after selection
smiles,measurement,setting,value
"Oc1ccc(C=Cc2cc(O)cc(O)c2)cc1 [Resveratrol, resveratrol]",Frequency of escapes,[1]; [4],4.4 ± 7.7%
same,Frequency of independent stable transgenic events,[1]; [4],297.8 ± 24.6 B %
same,reduction of escapes compared with the negative control,[1]; resveratrol 100 μM,5 fold
same,Frequency of escapes,[1]; [5],1.1 ± 1.9%
same,Frequency of independent stable transgenic events,[1]; [5],356.7 ± 10.0 A %
same,Frequency of escapes,[1]; [6],1.1 ± 1.9%
same,Frequency of independent stable transgenic events,[1]; [6],227.8 ± 17.1 C %
"COc1ccc2[nH]cc(CCNC(C)=O)c2c1 [melatonin, N-Acetyl-5-methoxytryptamine]",Extreme Browning Rate,"[2]; 10 μM melatonin in selection stage media, percentage of pokes with browning area ≧70%, Table 3",21.5%
same,"tissue browning reduced, compared to the negative control",[2]; 10 μM melatonin in transformation media,3.0 fold
same,Extreme Browning Rate,"[2]; 50 μM melatonin in selection stage media, Table 3",11.8%
same,"tissue browning reduced, compared to the negative control",[2]; 50 μM melatonin in transformation media,5.5 fold
same,Extreme Browning Rate,"[2]; 100 μM melatonin in selection stage media, Table 3 (first set)",6.4%
same,"tissue browning reduced, compared to the negative control",[2]; 100 μM melatonin in transformation media,10.2 fold
same,Extreme Browning Rate,"[2]; 100 μM melatonin, Table 4 (second set)",22.2%
same,Extreme Browning Rate,"[2]; 500 μM melatonin, Table 4",21.0%
same,Extreme Browning Rate,"[2]; 1000 μM melatonin, Table 4",50.6%
same,% of stable callus sectors,"rice calli (Nipponbare); melatonin 2 μM in inoculation, transgenic callus after selection, 50 explants",148.0%
same,% of stable callus sectors,"rice calli (Nipponbare); melatonin 10 μM in inoculation, after selection",156.0%
same,% of stable callus sectors,"rice calli (Nipponbare); melatonin 100 μM in inoculation, after selection",140.0%
same,% of stable callus sectors,"rice calli (Nipponbare); melatonin 300 μM in inoculation, after selection",140.0%
same,% of stable callus sectors,"rice calli (Nipponbare); melatonin 1000 μM in inoculation, after selection",86.0%
same,Transformation frequency,"[3]; melatonin 1 μM in infection and co-cultivation media, glyphosate selection",7.6% +
same,Transformation frequency,[3]; melatonin 10 μM in infection and co-cultivation media,7.5% +
same,Transformation frequency,[3]; melatonin 100 μM in infection and co-cultivation media,4.5% +
same,Frequency of escapes,"[1]; melatonin 10 μM, 4 weeks after selection",1.7 ± 0.0%
same,Frequency of independent stable transgenic events,"[1]; melatonin 10 μM, 4 weeks after selection, Table 5",214.4% ± 6.2 A
same,Frequency of escapes,"[1]; melatonin 50 μM, 4 weeks after selection",0.0 ± 0.0%
same,Frequency of independent stable transgenic events,"[1]; melatonin 50 μM, 4 weeks after selection, Table 5",221.3% ± 47.7 A
same,Frequency of escapes,"[1]; melatonin 100 μM, 4 weeks after selection",0.0 ± 0.0%
same,Frequency of independent stable transgenic events,"[1]; melatonin 100 μM, 4 weeks after selection, Table 5",229.4% ± 55.7 A
same,Frequency of independent stable transgenic events,"[1]; melatonin 100 μM, 4 weeks after selection, Table 6 (second set)",213.3% ± 75.4 A
same,Frequency of independent stable transgenic events,"[1]; melatonin 500 μM, 4 weeks after selection, Table 6",121.7% ± 1.7 B
same,Frequency of independent stable transgenic events,"[1]; melatonin 1000 μM, 4 weeks after selection, Table 6",80.0% ± 14.1 B
same,"frequency of independent stable transgenic events, increased to","[1]; melatonin at 10, 50 and 100 μM, from 88% in negative control without melatonin",229%
"Oc1cc(O)c2c(c1)O[C@H](c1ccc(O)c(O)c1)[C@H](O)C2 [Epicatechin, epicatechin]",Frequency of escapes,[1]; [7],1.7 ± 2.4%
same,Frequency of independent stable transgenic events,[1]; [7],418.3 ± 25.9 B %
same,Frequency of escapes,[1]; [8],0.0 ± 0.0%
same,Frequency of independent stable transgenic events,[1]; [8],521.7 ± 16.5 A %
same,Frequency of escapes,"[1]; epicatechin 100 mg/l, 6 weeks after selection, listed as epicatechin",0%
same,toxicity to plant tissues (inferred from reduced stable transformation frequency),[1]; epicatechin 1000 mg/l,might be toxic to plant tissues at that concentration
same,Frequency of escapes,[1]; [9],1.7 ± 2.4%
same,Frequency of independent stable transgenic events,[1]; [9],51.7 ± 2.4 D %
CC(C)(C)NO [N-t-butyl hydroxylamine],reduction of frequency of escapes compared with the negative control,[1]; N-t-butyl hydroxylamine 10 μM,2.5 fold
same,Frequency of escapes,[1]; [10],4.4 ± 5.1%
same,Frequency of independent stable transgenic events,[1]; [10],245.6 ± 44.0 A %
same,Frequency of escapes,[1]; [11],6.7 ± 3.3%
same,Frequency of independent stable transgenic events,[1]; [11],222.2 ± 9.6 AB %
same,Frequency of escapes,[1]; [12],8.9 ± 1.9%
same,Frequency of independent stable transgenic events,[1]; [12],205.6 ± 10.2 AB %
